Test systems include A549; CAKI-1; CCRF-CEM; HCT-116; HCT-15; K562; MOLT-4; Malme-3M; NCI-H226; NCI-H23; NCI-H522; OVCAR-4; RXF 393; SK-OV-3; SN12C; SNB-75; T47D; TK-10; UACC-62; UO-31.
Common to all, as to assay: growth of human tumour cells (NCI), 48 h

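Tested at 5 concentrations; 48 h exposure; 96-well plates; endpoints linearly interpolated, else capped at highest concentration. GI50 is the concentration that inhibits growth by half.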 The source made the active and inactive calls. Cut-off read from the data, not from the text of the source: active = GI50 up to about 1.1 µM and inactive = higher. Where only a bound is given, the exact number is not on record here.

`C/C(=N\O)c1ccc(Nc2c3ccccc3nc3occc23)cc1`: the GI50 with A549 is 0.263 µM (active); in the assay on CAKI-1, 0.231 µM (active); in the assay on CCRF-CEM, 0.184 µM (active); in the assay on HCT-116 it was 0.185 µM (active); in the assay with HCT-15, 0.126 µM; in the assay with K562 it was 0.174 µM (active). For the same molecule, the GI50 was 0.169 µM (active) in the assay with MOLT-4; 11.5 µM (inactive) with Malme-3M; 2.99 µM (inactive) in the assay with NCI-H226; 1.36 µM (inactive) with NCI-H23; 0.103 µM (active) in the assay on NCI-H522; 0.762 µM (active) with OVCAR-4. In addition, the GI50 in the assay with RXF 393 is 0.0352 µM (active); in the assay on SK-OV-3, 0.421 µM (active); in the assay with SN12C it was 1.44 µM (inactive); in the assay on SNB-75, 0.662 µM (active); in the assay with T47D, 0.553 µM (active); with TK-10, 1.17 µM (inactive). Further, the GI50 was 0.228 µM (active) in the assay with UACC-62 and 3.49 µM (inactive) in the assay with UO-31.
In the case of `S=C(Nc1c2c(nc3ccccc13)CCCC2)Nc1c2c(nc3ccccc13)CCCC2`, the GI50 with A549 is > 100 µM (inactive); in the assay on CAKI-1 it was > 100 µM (inactive); in the assay on CCRF-CEM, > 100 µM (inactive); in the assay with HCT-116, > 100 µM (inactive); in the assay with HCT-15, over 100 µM; with K562 it was > 100 µM (inactive). The GI50 in the assay with MOLT-4, with Malme-3M, in the assay on NCI-H226, in the assay with NCI-H23, in the assay on NCI-H522 and in the assay with OVCAR-4 was > 100 µM (inactive) throughout. The GI50 in the assay on RXF 393, in the assay on SK-OV-3, in the assay on SN12C, with SNB-75, with T47D and in the assay on TK-10 was > 100 µM (inactive) each time. Further, the GI50 with UACC-62 and in the assay on UO-31 was > 100 µM (inactive) throughout.
For the molecule `CCOC(=O)c1cc2ncccc2c2ccccc12`, the GI50 in the assay with A549 is > 100 µM (inactive); in the assay on CAKI-1, > 100 µM (inactive); in the assay with CCRF-CEM, > 100 µM (inactive); with HCT-116, > 100 µM (inactive); with HCT-15, over 100 µM; with K562 it was > 100 µM (inactive). Also, the GI50 with MOLT-4, with Malme-3M, in the assay on NCI-H226, with NCI-H23, in the assay on NCI-H522 and in the assay with OVCAR-4 was > 100 µM (inactive) in each case. In addition, the GI50 in the assay on RXF 393, in the assay on SK-OV-3, in the assay with SN12C, in the assay with SNB-75, in the assay on T47D and with TK-10 was > 100 µM (inactive) in each case. In addition, the GI50 with UACC-62 and in the assay on UO-31 was > 100 µM (inactive) throughout.
Turning to `CN1c2c(O)nc(N)nc2NCC1CCNc1ccc(C(=O)NC(CCC(=O)O)C(=O)O)cc1` (stereo not given), the GI50 in the assay on A549 is 242 µM (inactive); with CAKI-1, 328 µM (inactive); in the assay with CCRF-CEM, 62.5 µM (inactive); in the assay with HCT-116, 28.8 µM (inactive); in the assay with HCT-15, 1430 µM; with K562, 4.13 µM (inactive). Also, the GI50 was 33 µM (inactive) in the assay on MOLT-4; 1410 µM (inactive) in the assay on Malme-3M; 807 µM (inactive) in the assay with NCI-H226; 1640 µM (inactive) in the assay with NCI-H23; 423 µM (inactive) in the assay on NCI-H522; 893 µM (inactive) in the assay on OVCAR-4. For the same molecule, the GI50 in the assay on RXF 393 is 1010 µM (inactive); in the assay on SK-OV-3 it was 678 µM (inactive); with SN12C, 540 µM (inactive); in the assay with SNB-75 it was 553 µM (inactive); in the assay with T47D, 1860 µM (inactive); in the assay on TK-10, 1030 µM (inactive). Moreover, the values for the GI50 in the assay with UACC-62 and in the assay on UO-31 were 133 µM (inactive) and 1310 µM (inactive), respectively.
Consider `C=C(Br)CN(C(C)=O)C1CCCCC1`, for which the GI50 in the assay on A549 was > 100 µM (inactive); with CAKI-1, > 100 µM (inactive); in the assay on CCRF-CEM, > 100 µM (inactive); with HCT-116 it was > 100 µM (inactive); with HCT-15 it was over 100 µM; with K562, > 100 µM (inactive). The GI50 in the assay on MOLT-4, with Malme-3M, in the assay on NCI-H226, in the assay with NCI-H23, in the assay with NCI-H522 and with OVCAR-4 was > 100 µM (inactive) each time. Also, the GI50 in the assay on RXF 393, in the assay on SK-OV-3, in the assay on SN12C, with SNB-75, in the assay with T47D and with TK-10 was > 100 µM (inactive) in each case. The GI50 in the assay with UACC-62 and with UO-31 was > 100 µM (inactive) each time.
Consider `CC(=O)O[C@H]1C(=O)[C@@]2(C)[C@H]([C@H](OC(=O)c3ccncc3)[C@]3(O)C[C@H](OC(=O)[C@H](O)[C@@H](NC(=O)c4ccccc4)c4ccccc4)C(C)=C1C3(C)C)[C@]1(OC(C)=O)CO[C@@H]1C[C@@H]2O`, for which the GI50 in the assay on A549 is 18 µM (inactive); with CAKI-1, > 25 µM (inactive); with CCRF-CEM, 0.875 µM (active); in the assay with HCT-116, 1.1 µM (active); in the assay on HCT-15, over 25 µM; in the assay with K562, 0.953 µM (active). In addition, the GI50 was 1.39 µM (inactive) in the assay with MOLT-4; 2.31 µM (inactive) in the assay on Malme-3M; 16.1 µM (inactive) in the assay with NCI-H226; 12.6 µM (inactive) in the assay on NCI-H23; 1.77 µM (inactive) in the assay with NCI-H522; > 25 µM (inactive) with OVCAR-4. The GI50 is 7.01 µM (inactive) in the assay with RXF 393; 14.2 µM (inactive) in the assay on SK-OV-3; > 16.4 µM (inactive) in the assay with SN12C; 3.56 µM (inactive) in the assay with SNB-75; > 5.94 µM (inactive) in the assay on T47D; > 25 µM (inactive) with TK-10. In addition, the GI50 is 2.66 µM (inactive) in the assay with UACC-62 and > 25 µM (inactive) in the assay on UO-31.
In the case of `O=[N+]([O-])C1(CO)COC2(OC1)c1ccccc1-c1ccccc12`, the GI50 with A549 is > 100 µM (inactive); in the assay with CAKI-1, > 100 µM (inactive); with CCRF-CEM, 25.2 µM (inactive); with HCT-116 it was 35.3 µM (inactive); in the assay on HCT-15 it was 59.4 µM; with K562, 64.7 µM (inactive). In addition, the GI50 in the assay with MOLT-4 was 53.2 µM (inactive); in the assay on Malme-3M, 48.5 µM (inactive); with NCI-H226 it was > 100 µM (inactive); with NCI-H23, > 100 µM (inactive); with NCI-H522, 20 µM (inactive); in the assay with OVCAR-4 it was > 100 µM (inactive). For the same molecule, the GI50 with RXF 393 is > 55.2 µM (inactive); in the assay with SK-OV-3, > 100 µM (inactive); in the assay with SN12C, 70.1 µM (inactive); in the assay with SNB-75 it was > 100 µM (inactive); with T47D, 28.7 µM (inactive); with TK-10, > 100 µM (inactive). For the same molecule, the GI50 in the assay on UACC-62 and in the assay with UO-31 was > 100 µM (inactive) throughout.
Take `N=C(N)N/N=C/c1c(-c2ccccc2[N+](=O)[O-])nc2sccn12`: the GI50 was 34.1 µM (inactive) with A549; 64.9 µM (inactive) in the assay with CAKI-1; 19.4 µM (inactive) in the assay with CCRF-CEM; 18.6 µM (inactive) in the assay on HCT-116; over 100 µM with HCT-15; 14.1 µM (inactive) in the assay with K562. Further, the GI50 in the assay on MOLT-4 was 17.7 µM (inactive); in the assay with Malme-3M it was 15.7 µM (inactive); in the assay on NCI-H226, 17.4 µM (inactive); in the assay on NCI-H23 it was 29.2 µM (inactive); with NCI-H522, 17 µM (inactive); in the assay with OVCAR-4, 45.9 µM (inactive). The GI50 with RXF 393 is 12.6 µM (inactive); in the assay with SK-OV-3, 42.9 µM (inactive); in the assay on SN12C it was 32.5 µM (inactive); with SNB-75 it was 11.9 µM (inactive); in the assay on T47D, 18.3 µM (inactive); in the assay on TK-10, 23.6 µM (inactive). In addition, the results for the GI50 with UACC-62 and in the assay with UO-31 were 17.5 µM (inactive) and 36.8 µM (inactive), respectively.
Regarding `O=[N+]([O-])C[C@@]12O[C@]3(O)C4C5CC(C6C5C3C61)C42` (stereo not given in full), the GI50 in the assay on A549 was > 100 µM (inactive); in the assay on CAKI-1, > 100 µM (inactive); in the assay with CCRF-CEM, > 100 µM (inactive); in the assay on HCT-116, > 100 µM (inactive); with HCT-15, over 100 µM; with K562, > 100 µM (inactive). For the same molecule, the GI50 in the assay with MOLT-4, with Malme-3M, in the assay with NCI-H226, with NCI-H23, in the assay on NCI-H522 and with OVCAR-4 was > 100 µM (inactive) each time. Also, the GI50 with RXF 393, in the assay with SK-OV-3, in the assay with SN12C, with SNB-75, in the assay with T47D and in the assay on TK-10 was > 100 µM (inactive) each time. Also, the GI50 with UACC-62 and with UO-31 was > 100 µM (inactive) in each case.
On to `N#Cc1nc(C2CCC2)oc1N`, for which the GI50 was > 100 µM (inactive) in the assay on A549; > 100 µM (inactive) with CAKI-1; 22.8 µM (inactive) in the assay with CCRF-CEM; > 100 µM (inactive) in the assay on HCT-116; over 100 µM with HCT-15; > 100 µM (inactive) in the assay on K562. Also, the GI50 in the assay on MOLT-4, in the assay on Malme-3M, in the assay with NCI-H226, with NCI-H23, in the assay on NCI-H522 and with OVCAR-4 was > 100 µM (inactive) in each case. For the same molecule, the GI50 in the assay on RXF 393, with SK-OV-3, in the assay on SN12C, in the assay on SNB-75, in the assay with T47D and in the assay on TK-10 was > 100 µM (inactive) in each case. In addition, the GI50 in the assay on UACC-62 and with UO-31 was > 100 µM (inactive) throughout.

The record behind these values is ChEMBL document CHEMBL1201862, “PubChem BioAssay data set” (2004).
